According to patent US20110182953A1, “P[…] OF CALCIUM ACAMPROSATE” (priority 2009, published 2011):

Assay: accelerated stability tests
Format: physicochemical
Settings: exposed to heat and/or humidity sources

In the case of `CC(=O)NCCCS(=O)(=O)O` [form B, calcium acamprosate], the “stability of the polymorphic form in accelerated stability tests” value is reported as “does not alter”.
